B1: SV40 large T antigen: transiently over-expressed inhibitor of both p53 and Rb pathways (protein, UniProt P03070 1-708, looked up)
Large T antigen: MDKVLNREESLQLMDLLGLERSAWGNIPLMRKAYLKKCKEFHPDKGGDEEKMKKMNTLYKKMEDGVKYAHQPDFGGFWDATEIPTYGTDEWEQWWNAFNEENLFCSEEMPSSDDEATADSQHSTPPKKKRKVEDPKDFPSELLSFLSHAVFSNRTLACFAIYTTKEKAALLYKKIMEKYSVTFISRHNSYNHNILFFLTPHRHRVSAINNYAQKLCTFSFLICKGVNKEYLMYSALTRDPFSVIEESLPGGLKEHDFNPEEAEETKQVSWKLVTEYAMETKCDDVLLLLGMYLEFQYSFEMCLKCIKKEQPSHYKYHEKHYANAAIFADSKNQKTICQQAVDTVLAKKRVDSLQLTREQMLTNRFNDLLDRMDIMFGSTGSADIEEWMAGVAWLHCLLPKMDSVVYDFLKCMVYNIPKKRYWLFKGPIDSGKTTLAAALLELCGGKALNVNLPLDRLNFELGVAIDQFLVVFEDVKGTGGESRDLPSGQGINNLDNLRDYLDGSVKVNLEKKHLNKRTQIFPPGIVTMNEYSVPKTLQARFVKQIDFRPKDYLKHCLERSEFLLEKRIIQSGIALLLMLIWYRPVAEFAQSIQSRIVEWKERLDKEFSLSVYQKMKFNVAMGIGVLDWLRNSDDDDEDSQENADKNEDGGEKNMEDSGHETGIDSQSQGSFQAPQSSQSVHDHNQPYHICRGFTCFKKPPTPPPEPET

What was measured:
[1] = test system: PERV pol gene; assay: PERV pol targeting (editing) efficiency in FFF3 cells, deep sequencing of PERV pol loci; format: cell-based, porcine; conditions: for average targeting efficiency (PERV editing efficiency) of FFF3 populations: applied during genetic modification with CRISPR-Cas9
Description: Similar to the procedure previously described by Yang et al, 2015, Science, 80:350, a DNA fragment encoding U6-gRNA1-U6-gRNA2 (Genewiz) was synthesized and incorporated into a previously constructed PiggyBac-cas9 plasmid. To establish the FFF3 cell lines with PiggyBac-Cas9/2gRNAs integration, 5×10^5 FFF3 cells were transfected with 16 μg PiggyBac-Cas9/2gRNAs plasmid and 4 μg Super PiggyBac Transposase plasmid (System Biosciences) using the Neon transfection system according to the instructions in the commercial kits (Thermo Fisher Scientific). To select the cells carrying the integrated construct, 2 μg/mL puromycin was applied to the transfected cells. Based on the negative control, in which puromycin was applied to wild type FFF3 cells, it was determined that the puromycin selection was completed in 4 days. The FFF3-PiggyBac cell line was maintained with 2 μg/mL puromycin hereafter and a 2 μg/ml doxycycline was applied to induce Cas9 expression of the doxycycline-inducible FFF3-PiggyBac cell line.
To avoid the Cas9-consistent expression in the FFF3 cell line, PiggyBac-Cas9/2gRNAs excision from the FFF3 genome was conducted by transfecting 5×10^5 cells with 3 μg PiggyBac Excision-Only Transposase vector using Lipofectamine 2000 reagent. The PiggyBac-Cas9/2gRNAs-excised FFF3 cells were then single-cell sorted into 96-well plates for clone growth and genotyping.
First, puromycin selection followed by PiggyBac excision was conducted on the FFF3, PiggyBac-Cas9/2gRNA cell line. Then the cells were single-cell sorted into both 96-well PCR plates for direct genotyping and 96-well cell culture plates for colony growth.
To genotype single FF cells without clonal expansion, the PERV loci from sorted single cells were directly amplified according to a previously reported single-cell genotyping protocol. Briefly, the single cells were sorted into 96-well PCR plates with each well carrying a 5 μl lysis mixture, which contained 0.51 μl 10×KAPA express extract buffer (KAPA Biosystems), 0.1 μl of 1 U/μl KAPA Express Extract Enzyme and 4.6 μl water. The lysis reaction was incubated at 75° C. for 15 min and the reaction was subsequently inactivated at 95° C. for 5 min. All reactions were then added to 20 μl PCR reactions containing 1×KAPA 2G fast (KAPA Biosystems), 0.2 μM PERV Illumina primers (Methods Table 2). Reactions were incubated at 95° C. for 3 min followed by 25 cycles of 95° C., 20 s; 59° C., 20 s and 72° C., 10 s. To add the Illumina sequence adaptors, 3 μl of reaction products were then added to 20 μl of PCR mix containing 1×KAPA 2G fast(KAPA Biosystems) and 0.3 μM primers carrying Illumina sequence adaptors. Reactions were incubated at 95° C. for 3 min followed by 10 cycles of 95° C., 20 s; 59° C., 20 s and 72° C., 10 s. PCR products were checked on EX 2% gels (Invitrogen), followed by the recovery of 300-400 bp products from the gel. These products were then mixed at roughly the same amount, purified (QIAquick Gel Extraction Kit), and sequenced with MiSeq Personal Sequencer (Illumina). Deep sequencing data was analyzed, and the PERV editing efficiency using CRISPR-GA was determined (Denner et al., 2016, Viruses, 8:215).
As previously described in Yang et al. (6), a custom pipeline was built to estimate the efficiency of PERV inactivation. Briefly, the pol gene was amplified and sequenced via Illumina Next Generation Sequencing using PE250 or PE300. First, the two overlapping reads using PEAR (15) were combined and mapped to the reference region using BLAT. After mapping, the reads were grouped into sets containing specific combinations of haplotypes, and indel types. Read sets with representation lower than 0.5% of the total number of mapped reads were discarded. Finally, the mapping output was parsed to call the different insertions and deletions, as described in Güell et al (16).

[2] = test system: FFF3 cells
[3] = clones grown from sorted single cells

Molecule	average targeting efficiency (PERV editing efficiency) of FFF3 populations [1]	cytotoxicity [2]	PERV targeting efficiency among treatments with different dosages ([1]; FFF3 cells, seven days of treatment)	increase of the ratio of >80% PERV-ko clones compared with the untreated group [1, 3] [folds]	increase of the ratio of >90% PERV-ko clones compared with the untreated group [1, 3] [folds]
Cc1ccc(C(=O)Cn2c3c(sc2=N)CCCC3)cc1 [PFTα, pifithrin alpha, reference compound]	did not increased				
Bcl-2: an apoptosis inhibitor, over-expressed	did not increase	Dose-dependent cytotoxicity	No significant difference		
basic fibroblast growth factor [bFGF]	did not increased				
B1	increased			3.75	5.06
